According to patent publication US20040171566A1, “Antisense modulation of p38 mitogen activated protein kinase expression” (priority 1999, published 2004):
e = 2'-O-(2-methoxyethyl) (MOE); d = 2'-deoxy (DNA)

Key:
mouse p38α mRNA = assay: Mouse p38α mRNA levels in bEND.3 cells, quantitative real-time PCR; type: cell-based; set-up: % Inhib. mouse p38α: concentration or dose not given beside the values; conditions: bEND.3 cells, mRNA by quantitative real-time PCR, average of two experiments
Description: (§1) Quantitation of p38α mRNA levels was accomplished by real-time quantitative PCR using the ABI PRISM™ 7600, 7700, or 7900 Sequence Detection System (PE-Applied Biosystems, Foster City, Calif.) according to manufacturer's instructions. This is a closed-tube, non-gel-based, fluorescence detection system which allows high-throughput quantitation of polymerase chain reaction (PCR) products in real-time. As opposed to standard PCR in which amplification products are quantitated after the PCR is completed, products in real-time quantitative PCR are quantitated as they accumulate. This is accomplished by including in the PCR reaction an oligonucleotide probe that anneals specifically between the forward and reverse PCR primers, and contains two fluorescent dyes. A reporter dye (e.g., FAM or JOE, obtained from either PE-Applied Biosystems, Foster City, Calif., Operon Technologies Inc., Alameda, Calif. or Integrated DNA Technologies Inc., Coralville, Iowa) is attached to the 5′ end of the probe and a quencher dye (e.g., TAMRA, obtained from either PE-Applied Biosystems, Foster City, Calif., Operon Technologies Inc., Alameda, Calif. or Integrated DNA Technologies Inc., Coralville, Iowa) is attached to the 3′ end of the probe. When the probe and dyes are intact, reporter dye emission is quenched by the proximity of the 3′ quencher dye. During amplification, annealing of the probe to the target sequence creates a substrate that can be cleaved by the 5′-exonuclease activity of Taq polymerase. […] With each cycle, additional reporter dye molecules are cleaved from their respective probes, and the fluorescence intensity is monitored at regular intervals by laser optics built into the ABI PRISM™ Sequence Detection System. In each assay, a series of parallel reactions containing serial dilutions of mRNA from untreated control samples generates a standard curve that is used to quantitate the percent inhibition after antisense oligonucleotide treatment of test samples.
(§2) Prior to quantitative PCR analysis, primer-probe sets specific to the target gene being measured are evaluated for their ability to be “multiplexed” with a GAPDH amplification reaction. In multiplexing, both the target gene and the internal standard gene GAPDH are amplified concurrently in a single sample. In this analysis, mRNA isolated from untreated cells is serially diluted. Each dilution is amplified in the presence of primer-probe sets specific for GAPDH only, target gene only (“single-plexing”), or both (multiplexing). Following PCR amplification, standard curves of GAPDH and target mRNA signal as a function of dilution are generated from both the single-plexed and multiplexed samples. If both the slope and correlation coefficient of the GAPDH and target signals generated from the multiplexed samples fall within 10% of their corresponding values generated from the single-plexed samples, the primer-probe set specific for that target is deemed multiplexable. Other methods of PCR are also known in the art.
(§3) PCR reagents were obtained from Invitrogen Corporation, (Carlsbad, Calif.). […] The RT reaction was carried out by incubation for 30 minutes at 48° C. Following a 10 minute incubation at 95° C. to activate the PLATINUM® Taq, 40 cycles of a two-step PCR protocol were carried out: 95° C. for 15 seconds (denaturation) followed by 60° C. for 1.5 minutes (annealing/extension).
(§4) Gene target quantities obtained by real time RT-PCR are normalized using either the expression level of GAPDH, a gene whose expression is constant, or by quantifying total RNA using RiboGreen™ (Molecular Probes, Inc. Eugene, Oreg.). GAPDH expression is quantified by real time RT-PCR, by being run simultaneously with the target, multiplexing, or separately. Total RNA is quantified using RiboGreen™ RNA quantification reagent (Molecular Probes, Inc. Eugene, Oreg.). Methods of RNA quantification by RiboGreen™ are taught in Jones, L. J., et al, (Analytical Biochemistry, 1998, 265, 368-374). […]

rat p38α mRNA = assay: Rat p38α mRNA levels in NR-8383 cells, quantitative real-time PCR; type: cell-based; conditions: 300 nM oligonucleotide with FuGENE 6, 24 hours, mRNA by quantitative real-time PCR, average of two experiments
Description: as §1, §2, §3, §4

| Substance | % Inhib. mouse p38α (mouse p38α mRNA) [%] | % Inhib. rat p38α (rat p38α mRNA) [%] |
| --- | --- | --- |
| 320133 (antisense ACTTGAATGGTATTTGGAGA; sugars from the 5' end e5 d10 e5, all phosphorothioate, methylation of C not given here) [compound 320133] | 52 | 61 |
| 320103 (antisense AGCTCCTGCCGGTAGAACGT; sugars from the 5' end e5 d10 e5, all phosphorothioate, methylation of C not given here) [compound 320103] | 81 | 55 |
| 320143 (antisense AGGCACAAACAGACTGACAG; sugars from the 5' end e5 d10 e5, all phosphorothioate, methylation of C not given here) [compound 320143] | 88 | 54 |
| 320160 (antisense GTTAATATGGTCTGTACCAG; sugars from the 5' end e5 d10 e5, all phosphorothioate, methylation of C not given here) [compound 320160] | 53 | 43 |
| 320162 (antisense CGCATTATCTGCTGAAGCTG; sugars from the 5' end e5 d10 e5, all phosphorothioate, methylation of C not given here) [compound 320162] | 92 | 62 |
| 306022 (antisense GGCCAGAGACTGAATGTAGT; sugars from the 5' end e5 d10 e5, all phosphorothioate, methylation of C not given here) [compound 306022] | 78 | 53 |
| 320130 (antisense AGGACTCCATTTCTTCTTGG; sugars from the 5' end e5 d10 e5, all phosphorothioate, methylation of C not given here) [compound 320130] | 81 | 61 |
| 320173 (antisense TCCCACAGGCAGCGGCCGGG; sugars from the 5' end e5 d10 e5, all phosphorothioate, methylation of C not given here) [compound 320173] | 160 | 250 |
| 320158 (antisense CCTTCTGGGCTCCAAATGAT; sugars from the 5' end e5 d10 e5, all phosphorothioate, methylation of C not given here) [compound 320158] | 91 | 71 |
| 320118 (antisense CAGACTCTGAGGAGATTTTC; sugars from the 5' end e5 d10 e5, all phosphorothioate, methylation of C not given here) [compound 320118] | 47 | 69 |
| 320117 (antisense GGAGATTTTCTTCAGAAGCT; sugars from the 5' end e5 d10 e5, all phosphorothioate, methylation of C not given here) [compound 320117] | 72 | 55 |
| 320128 (antisense TCAAAGGACTGGTCATAAGG; sugars from the 5' end e5 d10 e5, all phosphorothioate, methylation of C not given here) [compound 320128] | 79 | 37 |
| 320170 (antisense TGCTGGCTATACACAGACAC; sugars from the 5' end e5 d10 e5, all phosphorothioate, methylation of C not given here) [compound 320170] | 83 | 55 |
| 320144 (antisense CCTTTTAAGGCACAAACAGA; sugars from the 5' end e5 d10 e5, all phosphorothioate, methylation of C not given here) [compound 320144] | 83 | 39 |
| 320136 (antisense AGCAGGCAGACTGCCAAGGA; sugars from the 5' end e5 d10 e5, all phosphorothioate, methylation of C not given here) [compound 320136] | 83 | 34 |
| 320116 (antisense TCAGAAGCTCAGCCCCTGGG; sugars from the 5' end e5 d10 e5, all phosphorothioate, methylation of C not given here) [compound 320116] | 95 | 73 |
| 320124 (antisense GGATTGGCACCAATAAATAC; sugars from the 5' end e5 d10 e5, all phosphorothioate, methylation of C not given here) [compound 320124] | 29 | 31 |
| 320141 (antisense GCATGGCTGAGGGATAGCCT; sugars from the 5' end e5 d10 e5, all phosphorothioate, methylation of C not given here) [compound 320141] | 83 | 73 |
| 320126 (antisense AGGCATGCGCAAGAGCTTGG; sugars from the 5' end e5 d10 e5, all phosphorothioate, methylation of C not given here) [compound 320126] | 90 | 69 |
| 320167 (antisense CTTGCCTGTAAAAACACAGA; sugars from the 5' end e5 d10 e5, all phosphorothioate, methylation of C not given here) [compound 320167] | 7 | 11 |
| 320163 (antisense TGTTAATGAGATAAGCAGGG; sugars from the 5' end e5 d10 e5, all phosphorothioate, methylation of C not given here) [compound 320163] | 0 | 40 |
| 320154 (antisense TCATGTTTATAAAGGTGAAA; sugars from the 5' end e5 d10 e5, all phosphorothioate, methylation of C not given here) [compound 320154] | 52 | 50 |
| 320134 (antisense AACAAGAGGCACTTGAATGG; sugars from the 5' end e5 d10 e5, all phosphorothioate, methylation of C not given here) [compound 320134] | 85 | 74 |
| 320107 (antisense TAGGTCCTTTTGGCGTGAAT; sugars from the 5' end e5 d10 e5, all phosphorothioate, methylation of C not given here) [compound 320107] | 84 | 60 |
| 320155 (antisense CCCTGAGGATTCATGTTTAT; sugars from the 5' end e5 d10 e5, all phosphorothioate, methylation of C not given here) [compound 320155] | 93 | 73 |
| 320147 (antisense AGAGCACAGCATGCAAACAC; sugars from the 5' end e5 d10 e5, all phosphorothioate, methylation of C not given here) [compound 320147] | 66 | 43 |
